Source: patent US20260224714A1, “CYCLING LYSOSOMAL TARGETING ANTIBODY CONJUGATES” (Lycia Therapeutics, Inc., priority 2023, published 2026)

Tests used:
Assay type in all cases: cell-based
[1] = system: Alexa Fluor647 labelled human IgE; test: Uptake assay: internalization of Alexa Fluor 647 labelled IgE in wild type HepG2 cells (Example 6); conditions: equimolar conjugate and AF647 IgE, 2 hours, median cellular AF647 intensity by flow cytometry, normalized to unconjugated parent protein
Summary of the method: (§1)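 HepG2 cells (wild type or ASGPR1/2 KO) pre-blocked with Fc receptor blocker, then exposed 2 h to conjugate precomplexed equimolar with AF647-labelled human IgE (30 min, room temperature) at 300 nM to 1.23 nM final. Median cellular AF647 by flow cytometry, normalized to unconjugated parent protein.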

[2] = system: Alexa Fluor647 labelled human IgE; test: Uptake assay: internalization of Alexa Fluor 647 labelled IgE in ASGPR1/2 KO HepG2 cells (Example 6); conditions: equimolar conjugate and AF647 IgE, normalized to unconjugated parent protein
Summary of the method: as §1

[3] = system: LysoLight-labelled human IgE; test: Lysosomal degradation of LysoLight-labelled IgE in HepG2 cells, live cell imaging (Example 7); conditions: equimolar conjugate:LysoLight IgE, area under the curve of deep red fluorescence over three days, normalized to unconjugated parent protein
Summary of the method: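 Conjugate precomplexed 30 min at room temperature with equimolar LysoLight-labelled human IgE, added to Fc-receptor-blocked HepG2 cells at final 100–1.23 nM. Red fluorescence, released on lysosomal cathepsin cleavage, imaged hourly for 72 h starting 1 h post-addition; area under the fluorescence–time curve taken as total degradation.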

HepG2 cells = test: Externalization of conjugates from a cell following internalization (cycling), high-throughput format (Example 11); conditions: 50 nM conjugate 1 hour, stringent washes, Alexa Fluor 647-labelled a-human IgG 1 hour, FACS, normalized to unconjugated parent protein, average of two replicate wells
Summary of the method: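 25,000 HepG2 cells incubated with conjugate for 1 h at indicated concentrations, then chilled and washed (DPBS, pH 5.2 acetate, pH 2.5 EBSS) to strip surface conjugate. Recycled conjugate captured by 1 μg/ml AF647 anti-human IgG in 37 °C EMEM for 1 h; median AF647 by flow cytometry, mean of two wells.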

human IgE = test: Degradation of initial and subsequent dose of target in HepG2 cells (Example 12, Table 30); conditions: normalized to unconjugated; for Normalized Fluorescence Post Wash Median Green: after wash, probe-conjugated IgE added for 4 hours, subsequent dose of target; for Normalized Fluorescence Precomplex Median Deep Red: precomplexed equimolar conjugate:IgE (cathepsin-cleavable quenched fluorescent probe) added for 2 hours, initial dose of target
Summary of the method: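 HepG2 cells exposed 2 h to conjugate precomplexed (30 min, 37 °C, equimolar) with 647-quenched-probe human IgE, acid/ice washed, then given 488-probe IgE without conjugate for 4 h. Median 647 (initial) and 488 (recycled) fluorescence by flow cytometry, normalised to unconjugated parent; mean of two wells.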

recombinant IgE = test: Degradation of super-stoichiometric levels of target in HepG2 cells (Example 13, Table 31); conditions: 1 nM conjugate and 25 nM IgE for three days, (A-B)/C IgE depleted relative to conjugate, average of two replicate wells
Summary of the method: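 HepG2 cells in EMEM/10% FBS were incubated with 1 nM conjugate plus 25 nM recombinant IgE for 72 h. IgE in medium at start and end quantified by MSD/ELISA-type assay; value is molar equivalents IgE depleted per conjugate, (initial − day-3 IgE)/conjugate concentration, mean of two wells.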

Compound | Normalized Fluorescence 3.7 nM WT [1] | Normalized Fluorescence 100 nM WT [1] | Normalized Fluorescence 100 nM ASGPR KO [2] | Normalized Fluorescence 3.7 nM [3] | Normalized Fluorescence 100 nM [3] | Normalized Fluorescence (HepG2 cells) | Normalized Fluorescence Post Wash Median Green (human IgE) | Normalized Fluorescence Precomplex Median Deep Red (human IgE) | Average Degradation (Molar equivalents) (recombinant IgE)
CC(=O)N[C@@H]1[C@@H](O)[C@@H](O)[C@@H](CO)O[C@@H]1CCCOCCOCCNC(=O)NCCCC(CCCNC(=O)NCCOCCOCCC[C@H]1O[C@H](CO)[C@H](O)[C@H](O)[C@H]1NC(C)=O)(CCCNC(=O)NCCOCCOCCC[C@H]1O[C@H](CO)[C@H](O)[C@H](O)[C@H]1NC(C)=O)NC(=O)NCCOCCOCCOCCN(C)C(=O)CBr [Compound 2316] | 68.4 | 314.3 | 1.1 | 13.4 | 3.7 | 45.7 | 3.5 | 3.8 | 5.7 Molar equivalents
CC(=O)N[C@@H]1[C@@H](O)[C@@H](O)[C@@H](CO)O[C@@H]1CCCCCOCCOCCNC(=O)NCCCOCC(COCCCNC(=O)NCCOCCOCCCCC[C@@H]1O[C@@H](CO)[C@@H](O)[C@@H](O)[C@@H]1NC(C)=O)(COCCCNC(=O)NCCOCCOCCCCC[C@H]1O[C@H](CO)[C@H](O)[C@H](O)[C@H]1NC(C)=O)NC(=O)CCOCCOCCOCCNC(=O)c1ccc(N2C(=O)C=CC2=O)cc1 (stereo partly drawn) [Compound 2317] | 76.2 | 255.2 | 1.1 | 15.2 | 4.2 | 48.8 | 3.7 | 3.6 | 4.0 Molar equivalents
CC(=O)N[C@@H]1[C@@H](O)[C@@H](O)[C@@H](CO)O[C@@H]1CCCOCCOCCNC(=O)NCCCC(C)(CCCNC(=O)NCCOCCOCCC[C@H]1O[C@H](CO)[C@H](O)[C@H](O)[C@H]1NC(C)=O)NC(=O)NCCOCCOCCOCCNC(=O)c1ccc(N2C(=O)C=CC2=O)cc1 (stereo partly drawn) [Compound 2318, N,N′-((2R,2′R,3R,3′R,4R,4′R,5R,5′R,6R,6′R)-(16-(3-(1-(4-(2,5-dioxo-2,5-dihydro-1H-pyrrol-1-yl)phenyl)-1-oxo-5,8,11-trioxa-2-azatridecan-13-yl)ureido)-16-methyl-11,21-dioxo-4,7,25,28-tetraoxa-10,12,20,22-tetraazahentriacontane-1,31-diyl)bis(4,5-dihydroxy-6-(hydroxymethyl)tetrahydro-2H-pyran-2,3-diyl))diacetamide] | 44.1 | 159.1 | 1.0 | 4.1 | 2.1 | 27.4 | 2.0 | 2.4 | 4.2 Molar equivalents
CC(=O)N[C@@H]1[C@@H](O)[C@@H](O)[C@@H](CO)O[C@@H]1CCCOCCOCCNC(=O)NCCOCCOCCOCCOCCOCCNC(=O)c1ccc(N2C(=O)C=CC2=O)cc1 [Compound 2319-C, N-(29-((2R,3R,4R,5R,6R)-3-acetamido-4,5-dihydroxy-6-(hydroxymethyl)tetrahydro-2H-pyran-2-yl)-19-oxo-3,6,9,12,15,23,26-heptaoxa-18,20-diazanonacosyl)-4-(2,5-dioxo-2,5-dihydro-1H-pyrrol-1-yl)benzamide] | 2.3 | 16.0 | 1.4 | 1.1 | 1.0 | 5.0 | 1.1 | 1.2 | 2.1 Molar equivalents
CC(=O)N[C@@H]1[C@@H](O)[C@@H](O)[C@@H](CO)O[C@@H]1CCCOCCOCCNC(=O)NCCCC(C)(CCCNC(=O)NCCOCCOCCC[C@H]1O[C@H](CO)[C@H](O)[C@H](O)[C@H]1NC(C)=O)NC(=O)NCCOCCOCCOCCNC(=O)CBr (stereo partly drawn) [Compound 2320] | 37.7 | 224.4 | 1.1 | 6.4 | 2.7 | 24.1 | 2.7 | 3.2 | 0.5 Molar equivalents
CC(=O)N[C@@H]1[C@@H](O)[C@@H](O)[C@@H](CO)O[C@@H]1CCCOCCOCCNC(=O)NCCCC(CCCNC(=O)NCCOCCOCCC[C@H]1O[C@H](CO)[C@H](O)[C@H](O)[C@H]1NC(C)=O)(CCCNC(=O)NCCOCCOCCC[C@H]1O[C@H](CO)[C@H](O)[C@H](O)[C@H]1NC(C)=O)NC(=O)NCCOCCOCCOCCNC(=O)CBr [Compound 2321] | 80.7 | 320.7 | 1.1 | 13.2 | 4.1 | 49.3 | 3.7 | 4.0 | 2.4 Molar equivalents
CC(=O)N[C@@H]1[C@@H](O)[C@@H](O)[C@@H](CO)O[C@@H]1CCCOCCOCCNC(=O)NCCCC(CCCNC(=O)NCCOCCOCCC[C@H]1O[C@H](CO)[C@H](O)[C@H](O)[C@H]1NC(C)=O)(CCCNC(=O)NCCOCCOCCC[C@H]1O[C@H](CO)[C@H](O)[C@H](O)[C@H]1NC(C)=O)NC(=O)NCCOCCOCCOCCN(C)C(=O)c1ccc(N2C(=O)C=CC2=O)cc1 [Compound 2322] | 68.5 | 214.4 | 1.2 | 7.8 | 3.5 | 46.8 | 3.3 | 3.5 | 5.2 Molar equivalents
O=C(CCOCCOCCOCCNS(=O)(=O)c1ccc(N2C(=O)C=CC2=O)cc1)NC(CCCNC(=O)NCCOCCOCCOC[C@H]1CN([C@H]2CO[C@H](CO)[C@H](O)[C@@H]2O)C(=O)O1)(CCCNC(=O)NCCOCCOCCOC[C@H]1CN([C@H]2CO[C@H](CO)[C@H](O)[C@@H]2O)C(=O)O1)CCCNC(=O)NCCOCCOCCOC[C@H]1CN([C@H]2CO[C@H](CO)[C@H](O)[C@@H]2O)C(=O)O1 [Compound 2324] | 39.2 | 207.4 | 1.2 | 5.8 | 2.6 | 32.2 | 2.9 | 3.2 | 5.2 Molar equivalents
